# Reference: ChEMBL document CHEMBL1201862, “PubChem BioAssay data set” (2004)
#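 Protocol summary: plate cells (96-well), add compound at 5 concentrations, incubate 48 h, interpolate endpoints linearly. Abbreviation: GI50, concentration required for 50% inhibition of growth.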 Active and inactive are the calls of the source. Rule as the data show it: active = GI50 up to about 1.1 µM and inactive = higher.
# Columns and labels:
# Assay in all cases: NCI tumour cell line growth inhibition, 48 h
# 786-0 = tested on: 786-0
# A498 = tested on: A498
# A549 = tested on: A549
# ACHN = tested on: ACHN
# CAKI-1 = tested on: CAKI-1
# DU-145 = tested on: DU-145
# HCT-116 = tested on: HCT-116
# HOP-62 = tested on: HOP-62
# IGROV-1 = tested on: IGROV-1
# M14 = tested on: M14
# NCI-H226 = tested on: NCI-H226
# NCI-H23 = tested on: NCI-H23
# OVCAR-3 = tested on: OVCAR-3
# OVCAR-4 = tested on: OVCAR-4
# RPMI-8226 = tested on: RPMI-8226
# SK-MEL-28 = tested on: SK-MEL-28
# SK-OV-3 = tested on: SK-OV-3
# TK-10 = tested on: TK-10
# UACC-257 = tested on: UACC-257
# UACC-62 = tested on: UACC-62
Structure (SMILES),GI50 (786-0),GI50 (A498),GI50 (A549),GI50 (ACHN),GI50 (CAKI-1),GI50 (DU-145),GI50 (HCT-116),GI50 (HOP-62),GI50 (IGROV-1),GI50 (M14),GI50 (NCI-H226),GI50 (NCI-H23),GI50 (OVCAR-3),GI50 (OVCAR-4),GI50 (RPMI-8226),GI50 (SK-MEL-28),GI50 (SK-OV-3),GI50 (TK-10),GI50 (UACC-257),GI50 (UACC-62)
CN(Cc1cc(C(C)(C)C)cc(Br)c1O)Cc1cc(C(C)(C)C)cc(Br)c1O,3.69 µM (inactive),2.75 µM (inactive),3.52 µM (inactive),2.94 µM (inactive),3.4 µM (inactive),6.1 µM (inactive),3.05 µM (inactive),4.08 µM (inactive),1.72 µM (inactive),4.28 µM (inactive),4.18 µM (inactive),3.15 µM (inactive),2.15 µM (inactive),5.08 µM (inactive),2.01 µM (inactive),5.14 µM (inactive),9.51 µM (inactive),2.17 µM (inactive),2.48 µM (inactive),3.13 µM (inactive)
CCOC(=O)NC(C(=O)OCC)(N1CCN(c2cc3c(cc2F)c(=O)c(C(=O)O)cn3CC)CC1)C(F)(F)F (stereo not given),> 100 µM (inactive),> 100 µM (inactive),> 100 µM (inactive),> 100 µM (inactive),> 100 µM (inactive),> 100 µM (inactive),> 100 µM (inactive),> 100 µM (inactive),> 100 µM (inactive),> 100 µM (inactive),> 100 µM (inactive),> 100 µM (inactive),> 100 µM (inactive),> 100 µM (inactive),> 100 µM (inactive),0.197 µM (active),> 100 µM (inactive),> 100 µM (inactive),> 100 µM (inactive),> 100 µM (inactive)
COc1cc2c3c(c1)CCCN3CCC2,> 10 µM (inactive),> 10 µM (inactive),> 10 µM (inactive),> 10 µM (inactive),> 10 µM (inactive),> 10 µM (inactive),> 10 µM (inactive),> 10 µM (inactive),> 10 µM (inactive),> 10 µM (inactive),> 10 µM (inactive),> 10 µM (inactive),> 10 µM (inactive),> 10 µM (inactive),> 10 µM (inactive),> 10 µM (inactive),> 10 µM (inactive),> 10 µM (inactive),> 10 µM (inactive),> 10 µM (inactive)
C/C=C(\C)CC/C=C/CO[Si](C)(C)C(C)(C)C,> 100 µM (inactive),> 100 µM (inactive),39.4 µM (inactive),> 100 µM (inactive),> 100 µM (inactive),> 100 µM (inactive),46.8 µM (inactive),> 100 µM (inactive),> 100 µM (inactive),> 100 µM (inactive),> 100 µM (inactive),> 100 µM (inactive),54.7 µM (inactive),> 100 µM (inactive),> 100 µM (inactive),> 100 µM (inactive),> 100 µM (inactive),> 100 µM (inactive),69 µM (inactive),> 100 µM (inactive)
CN(C)c1ccc(/C=c2/c3ccccc3n3c2cc(C24CC5CC(CC(C5)C2)C4)[n+]3C)cc1,0.126 µM (active),0.314 µM (active),0.205 µM (active),0.23 µM (active),0.234 µM (active),0.311 µM (active),0.0828 µM (active),0.411 µM (active),0.127 µM (active),0.32 µM (active),0.396 µM (active),0.261 µM (active),0.476 µM (active),0.337 µM (active),0.053 µM (active),0.643 µM (active),0.377 µM (active),0.39 µM (active),0.251 µM (active),0.345 µM (active)
NCCCN1c2ccccc2Sc2ccc(Cl)cc21,3.24 µM (inactive),> 10 µM (inactive),4.59 µM (inactive),6.18 µM (inactive),> 8.24 µM (inactive),> 10 µM (inactive),2.53 µM (inactive),> 10 µM (inactive),> 5.43 µM (inactive),1.73 µM (inactive),9.95 µM (inactive),> 10 µM (inactive),5.3 µM (inactive),> 10 µM (inactive),3.95 µM (inactive),> 5.85 µM (inactive),> 6.56 µM (inactive),5.96 µM (inactive),> 6.19 µM (inactive),> 7.31 µM (inactive)
COc1ccc(/N=C\c2ccc(N(CCC#N)CCC#N)cc2)cc1,52.2 µM (inactive),> 100 µM (inactive),47.9 µM (inactive),26.7 µM (inactive),69.2 µM (inactive),> 100 µM (inactive),63.8 µM (inactive),> 56.2 µM (inactive),82 µM (inactive),28.1 µM (inactive),> 100 µM (inactive),> 100 µM (inactive),78.3 µM (inactive),> 86.1 µM (inactive),59 µM (inactive),> 81.1 µM (inactive),> 100 µM (inactive),64.1 µM (inactive),> 100 µM (inactive),16.6 µM (inactive)
O=C1N/C(=N/N=C/C(O)C(O)C(O)C(O)CO)N/C1=C\c1ccco1 (stereo not given),> 100 µM (inactive),> 100 µM (inactive),> 100 µM (inactive),> 100 µM (inactive),> 100 µM (inactive),> 100 µM (inactive),> 100 µM (inactive),> 100 µM (inactive),> 100 µM (inactive),> 100 µM (inactive),> 100 µM (inactive),> 100 µM (inactive),> 100 µM (inactive),> 100 µM (inactive),> 100 µM (inactive),> 100 µM (inactive),> 100 µM (inactive),> 100 µM (inactive),> 100 µM (inactive),> 100 µM (inactive)
C=C1C(=O)OC2C1C(OC(=O)/C(C)=C/C)CC1(C)C(=O)CCC(=C)C21 (stereo not given),4.02 µM (inactive),13.8 µM (inactive),19.2 µM (inactive),2.4 µM (inactive),4.79 µM (inactive),8.07 µM (inactive),4.03 µM (inactive),16.9 µM (inactive),11.3 µM (inactive),5.26 µM (inactive),20.7 µM (inactive),12.8 µM (inactive),6.92 µM (inactive),11 µM (inactive),1.95 µM (inactive),3.47 µM (inactive),25.2 µM (inactive),4.89 µM (inactive),11.2 µM (inactive),8.47 µM (inactive)
COc1ccc(-c2csc(Cc3nc4ccccc4c(=O)n3-c3ccc(Cl)cc3)n2)cc1,28.6 µM (inactive),70.8 µM (inactive),22.7 µM (inactive),30.9 µM (inactive),> 100 µM (inactive),84.5 µM (inactive),19.8 µM (inactive),> 100 µM (inactive),32.7 µM (inactive),21.7 µM (inactive),74.6 µM (inactive),28.8 µM (inactive),40.5 µM (inactive),52.6 µM (inactive),15.9 µM (inactive),27 µM (inactive),> 100 µM (inactive),> 100 µM (inactive),51.1 µM (inactive),18.5 µM (inactive)
